# Assay results published in ChEMBL document CHEMBL1201862, “PubChem BioAssay data set” (2004).
#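 Grown in 96-well plates, cells were treated for 48 hours with each compound at five concentrations. Insufficient inhibition: endpoint recorded as highest concentration tested. Abbreviation: GI50, concentration required for 50% inhibition of growth.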 Active and inactive are the calls of the source. No stated cut-off is given here; in the data, active = GI50 up to about 1.1 µM and inactive = higher.
# Key:
# Experiment in all cases: NCI anticancer screen, dose series, 48 h
# EKVX = test system: EKVX
# MCF7 = test system: MCF7
# MOLT-4 = test system: MOLT-4
# PC-3 = test system: PC-3
# SNB-75 = test system: SNB-75
# SF-295 = test system: SF-295
# COLO 205 = test system: COLO 205
# SW-620 = test system: SW-620
# MDA-N = test system: MDA-N
# IGROV-1 = test system: IGROV-1
# SNB-19 = test system: SNB-19
# SK-MEL-5 = test system: SK-MEL-5
# OVCAR-4 = test system: OVCAR-4
# MDA-MB-435 = test system: MDA-MB-435
# CCRF-CEM = test system: CCRF-CEM
# Malme-3M = test system: Malme-3M
# CAKI-1 = test system: CAKI-1
# RPMI-8226 = test system: RPMI-8226
# HL-60 = test system: HL-60
# HCT-116 = test system: HCT-116
# TK-10 = test system: TK-10
# SK-OV-3 = test system: SK-OV-3
# HOP-62 = test system: HOP-62
# UO-31 = test system: UO-31
# HT-29 = test system: HT-29
# M14 = test system: M14
# UACC-257 = test system: UACC-257
# UACC-62 = test system: UACC-62
# SF-268 = test system: SF-268
# NCI-H460 = test system: NCI-H460
# A549 = test system: A549
# Hs-578T = test system: Hs-578T
# NCI/ADR-RES = test system: NCI/ADR-RES
# RXF 393 = test system: RXF 393
# T47D = test system: T47D
# 786-0 = test system: 786-0
# SF-539 = test system: SF-539
# LOX IMVI = test system: LOX IMVI
# ACHN = test system: ACHN
# A498 = test system: A498
# SR = test system: SR
# KM12 = test system: KM12
# NCI-H23 = test system: NCI-H23
# OVCAR-3 = test system: OVCAR-3
# MDA-MB-231 = test system: MDA-MB-231
# SK-MEL-28 = test system: SK-MEL-28
# U-251 = test system: U-251
# DU-145 = test system: DU-145
# NCI-H522 = test system: NCI-H522
# SK-MEL-2 = test system: SK-MEL-2
# BT-549 = test system: BT-549
# NCI-H226 = test system: NCI-H226
# HOP-92 = test system: HOP-92
# K562 = test system: K562
# OVCAR-5 = test system: OVCAR-5
# HCT-15 = test system: HCT-15
# OVCAR-8 = test system: OVCAR-8
# SN12C = test system: SN12C
smiles,measurement,setting,value
Nc1nc(Cl)cc(NCC2(CO)CCC(OCc3ccccc3)C2)n1 (stereo not drawn),GI50,EKVX,10.2 µM (inactive)
same,GI50,MCF7,1.59 µM (inactive)
same,GI50,MOLT-4,4.99 µM (inactive)
same,GI50,PC-3,8.24 µM (inactive)
same,GI50,SNB-75,12.4 µM (inactive)
same,GI50,SF-295,31 µM (inactive)
same,GI50,COLO 205,21.1 µM (inactive)
same,GI50,SW-620,60 µM (inactive)
same,GI50,MDA-N,16.8 µM (inactive)
same,GI50,IGROV-1,18.2 µM (inactive)
same,GI50,SNB-19,23.1 µM (inactive)
same,GI50,SK-MEL-5,2.82 µM (inactive)
same,GI50,OVCAR-4,12.1 µM (inactive)
same,GI50,MDA-MB-435,14.8 µM (inactive)
same,GI50,CCRF-CEM,14.6 µM (inactive)
same,GI50,Malme-3M,20.8 µM (inactive)
same,GI50,CAKI-1,8.09 µM (inactive)
same,GI50,RPMI-8226,34.4 µM (inactive)
same,GI50,HL-60,21.4 µM (inactive)
same,GI50,HCT-116,16.9 µM (inactive)
same,GI50,TK-10,11.2 µM (inactive)
same,GI50,SK-OV-3,11.1 µM (inactive)
same,GI50,HOP-62,25.4 µM (inactive)
same,GI50,UO-31,11.3 µM (inactive)
same,GI50,HT-29,11.1 µM (inactive)
same,GI50,M14,20.7 µM (inactive)
same,GI50,UACC-257,12.8 µM (inactive)
same,GI50,UACC-62,21.4 µM (inactive)
same,GI50,SF-268,26.2 µM (inactive)
same,GI50,NCI-H460,19.3 µM (inactive)
same,GI50,A549,15.2 µM (inactive)
same,GI50,Hs-578T,14.4 µM (inactive)
same,GI50,NCI/ADR-RES,3.81 µM (inactive)
same,GI50,RXF 393,27 µM (inactive)
same,GI50,T47D,1.39 µM (inactive)
same,GI50,786-0,35.2 µM (inactive)
same,GI50,SF-539,29.7 µM (inactive)
same,GI50,LOX IMVI,2.83 µM (inactive)
same,GI50,ACHN,5.69 µM (inactive)
same,GI50,A498,8.24 µM (inactive)
same,GI50,SR,4.06 µM (inactive)
same,GI50,KM12,21 µM (inactive)
same,GI50,NCI-H23,0.641 µM (active)
same,GI50,OVCAR-3,30.5 µM (inactive)
same,GI50,MDA-MB-231,7.45 µM (inactive)
same,GI50,SK-MEL-28,19.5 µM (inactive)
same,GI50,U-251,29.9 µM (inactive)
same,GI50,DU-145,27.7 µM (inactive)
same,GI50,NCI-H522,1.31 µM (inactive)
same,GI50,SK-MEL-2,21.3 µM (inactive)
same,GI50,BT-549,13.9 µM (inactive)
same,GI50,NCI-H226,14.8 µM (inactive)
same,GI50,HOP-92,3.57 µM (inactive)
same,GI50,K562,7.26 µM (inactive)
same,GI50,OVCAR-5,37.7 µM (inactive)
same,GI50,HCT-15,15 µM
same,GI50,OVCAR-8,22.1 µM (inactive)
same,GI50,SN12C,8.89 µM (inactive)
CCOC(=O)CCc1c(C(=O)OCC)[nH]c(/C=C2/NC(=O)C(C)=C2CC)c1C,GI50,MCF7,5 µM (inactive)
same,GI50,MOLT-4,0.0224 µM (active)
same,GI50,PC-3,22.1 µM (inactive)
same,GI50,SNB-75,15.4 µM (inactive)
same,GI50,SF-295,11.6 µM (inactive)
same,GI50,COLO 205,14 µM (inactive)
same,GI50,SW-620,23.2 µM (inactive)
same,GI50,MDA-N,5.83 µM (inactive)
same,GI50,IGROV-1,8.38 µM (inactive)
same,GI50,SNB-19,13.1 µM (inactive)
same,GI50,SK-MEL-5,2.97 µM (inactive)
same,GI50,OVCAR-4,2.9 µM (inactive)
same,GI50,MDA-MB-435,6.73 µM (inactive)
same,GI50,Malme-3M,13 µM (inactive)
same,GI50,CAKI-1,21.2 µM (inactive)
same,GI50,HL-60,5.01 µM (inactive)
same,GI50,HCT-116,13.1 µM (inactive)
same,GI50,TK-10,24.7 µM (inactive)
same,GI50,SK-OV-3,34.7 µM (inactive)
same,GI50,HOP-62,15 µM (inactive)
same,GI50,UO-31,2 µM (inactive)
same,GI50,HT-29,10.4 µM (inactive)
same,GI50,M14,7.28 µM (inactive)
same,GI50,UACC-257,10.1 µM (inactive)
same,GI50,UACC-62,4.9 µM (inactive)
same,GI50,SF-268,10.2 µM (inactive)
same,GI50,NCI-H460,32.7 µM (inactive)
same,GI50,A549,24.3 µM (inactive)
same,GI50,Hs-578T,25.1 µM (inactive)
same,GI50,NCI/ADR-RES,10.4 µM (inactive)
same,GI50,RXF 393,11.1 µM (inactive)
same,GI50,T47D,2.11 µM (inactive)
same,GI50,786-0,15.8 µM (inactive)
same,GI50,SF-539,19.5 µM (inactive)
same,GI50,LOX IMVI,8.18 µM (inactive)
same,GI50,ACHN,11.3 µM (inactive)
same,GI50,A498,17.1 µM (inactive)
same,GI50,SR,4.51 µM (inactive)
same,GI50,KM12,10.9 µM (inactive)
same,GI50,NCI-H23,2.24 µM (inactive)
same,GI50,OVCAR-3,3.88 µM (inactive)
same,GI50,MDA-MB-231,13.6 µM (inactive)
same,GI50,SK-MEL-28,13.7 µM (inactive)
same,GI50,U-251,11.2 µM (inactive)
same,GI50,DU-145,16.9 µM (inactive)
same,GI50,NCI-H522,11.7 µM (inactive)
same,GI50,SK-MEL-2,18.3 µM (inactive)
same,GI50,BT-549,1.61 µM (inactive)
same,GI50,NCI-H226,16.9 µM (inactive)
same,GI50,HOP-92,14.1 µM (inactive)
same,GI50,K562,0.0494 µM (active)
same,GI50,OVCAR-5,29.5 µM (inactive)
same,GI50,HCT-15,3.47 µM
same,GI50,OVCAR-8,31.9 µM (inactive)
same,GI50,SN12C,16.9 µM (inactive)
